Results published in article PMC10035370, “Targeting Tumor Angiogenesis with the Selective VEGFR-3 Inhibitor EVT801 in Combination with Cancer Immunotherapy” (Cancer Research Communications, 2022).
Like-named read-outs stand apart in the source and are kept apart here.

What was measured:
VEGFR-2 [1] = molecular target: T1, VEGFR-2 (Homo sapiens, UniProt P35968); assay: Biochemical kinase assay (in vitro assay), VEGFR-2; design: expressed in transfected cells; host or cells: HEK293T; conditions: read-out: IC50 in biochemical assays, VEGFR-2
Method: Sigma protein kinase assay kits were used. 125 μL per well of Poly-Glu-Tyr (PGT) solution (250 μg/mL of PGT in PBS without Ca^2+, Mg^2+ and sodium bicarbonate) was added in a 96-well plate and overnight incubation was performed at 37 °C. The day after, coating solution was removed and wells were washed with 300 μL of PBS-Tween-20 0.05 %. The washing buffer was removed and wells were dried for 2 h at 37 °C. 90 μL of the kinase buffer was supplemented with ATP (30 μM for VEGFR-1 and VEGFR-3, and 15 μM for VEGFR-2), and the compound (EVT801 or SAR401849 at the indicated concentration or 1 % DMSO for the vehicle control). The phosphorylation reaction was initiated by the addition of 20 μL of kinase buffer without ATP supplemented with 100 ng of the tyrosine kinase (or without tyrosine kinase as control). Plates were incubated with gentle agitation at room temperature for 30 min. After 3 washes with 300 μL of washing buffer, 100 μL of phosphotyrosine specific monoclonal antibody conjugated to HRP (1:30,000) was added onto the phosphorylated PGT. Plates were incubated for 30 min at room temperature under gentle agitation. Then, 3 washes with 300 μL of washing buffer were performed. […] After 7 min at room temperature, the reaction was stopped by addition of 100 μL of […], and absorbance was determined with an Endvision spectrophotometer at 492 nm.
Target sequence in this assay (P35968 20-1356): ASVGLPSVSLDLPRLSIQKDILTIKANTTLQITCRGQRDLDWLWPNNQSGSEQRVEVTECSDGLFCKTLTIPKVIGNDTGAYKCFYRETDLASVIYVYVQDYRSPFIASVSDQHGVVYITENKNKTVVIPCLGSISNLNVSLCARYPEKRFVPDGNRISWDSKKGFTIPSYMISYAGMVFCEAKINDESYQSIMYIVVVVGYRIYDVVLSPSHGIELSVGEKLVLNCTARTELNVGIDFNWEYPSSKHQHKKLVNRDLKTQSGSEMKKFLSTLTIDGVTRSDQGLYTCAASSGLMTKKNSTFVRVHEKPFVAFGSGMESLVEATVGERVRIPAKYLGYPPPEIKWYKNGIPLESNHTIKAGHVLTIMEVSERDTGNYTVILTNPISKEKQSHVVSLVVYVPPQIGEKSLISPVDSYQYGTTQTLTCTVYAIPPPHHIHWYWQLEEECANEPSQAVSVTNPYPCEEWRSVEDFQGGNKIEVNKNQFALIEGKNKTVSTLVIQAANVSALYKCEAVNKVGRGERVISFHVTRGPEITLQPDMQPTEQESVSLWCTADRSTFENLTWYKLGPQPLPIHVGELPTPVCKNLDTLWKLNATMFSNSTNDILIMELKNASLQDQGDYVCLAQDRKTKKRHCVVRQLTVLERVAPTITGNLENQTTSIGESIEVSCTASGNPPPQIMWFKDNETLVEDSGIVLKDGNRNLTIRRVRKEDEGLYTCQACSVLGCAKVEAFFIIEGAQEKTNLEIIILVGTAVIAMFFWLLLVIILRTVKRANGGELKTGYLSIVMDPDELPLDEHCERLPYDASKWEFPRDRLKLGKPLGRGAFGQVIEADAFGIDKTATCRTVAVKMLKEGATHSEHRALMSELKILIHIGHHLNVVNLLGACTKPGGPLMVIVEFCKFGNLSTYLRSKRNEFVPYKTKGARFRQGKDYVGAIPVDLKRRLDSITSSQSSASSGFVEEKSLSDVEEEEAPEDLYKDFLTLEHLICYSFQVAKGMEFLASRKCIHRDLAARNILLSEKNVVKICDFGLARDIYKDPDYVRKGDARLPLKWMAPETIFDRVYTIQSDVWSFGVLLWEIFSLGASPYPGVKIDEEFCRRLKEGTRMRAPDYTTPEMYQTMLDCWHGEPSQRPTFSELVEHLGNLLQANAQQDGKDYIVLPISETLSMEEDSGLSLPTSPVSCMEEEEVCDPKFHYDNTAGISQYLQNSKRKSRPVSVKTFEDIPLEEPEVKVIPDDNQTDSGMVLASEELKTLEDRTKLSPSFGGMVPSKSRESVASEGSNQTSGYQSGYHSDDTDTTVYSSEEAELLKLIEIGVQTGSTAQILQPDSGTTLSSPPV

[2] = Blood pressure in telemetered rat model of hypertension; type: in vivo; conditions: dose as high as 500 mg/kg, single oral administration
Method: Supplementary Figure 8. EVT801 and sorafenib show opposing effects on blood pressure in rats. (A) Monitoring of the blood pressure over 24 h after single oral administration of 100 mg/kg EVT801 or 500 mg/kg of EVT801, compared to animals treated with vehicle. (B) Monitoring of the blood pressure over 24 h after single oral administration of 10 mg/kg sorafenib, 30 mg/kg sorafenib or 100 mg/kg of sorafenib, compared to animals treated with vehicle.

ERK phosphorylation = assay: Immunoblot of phosphorylated ERK in NCI-H1703 cells; type: cell-based, human; conditions: 1 μmol/L
Method: For immunoblotting, 2 x 10^5 cells were scraped and lysed with RIPA lysis buffer (Sigma, R0278), supplemented with protease inhibitor cocktail (Ozyme, 5872S). After separation by SDS-PAGE, proteins were transferred to PVDF membranes. Membranes were blocked with 5 % milk in TBS-T for saturation step and incubated with phosphorylated ERK (CellSignaling, 4377, 1:1000) or GAPDH (CellSignaling, 5174, 1:1000) antibodies overnight, followed by an anti-mouse IgG, secondary antibody HRP linked (CellSignaling, 7076, 1:2000) in antibodies buffer (TBS-Tween 0.05 %, 0.1 % BSA) for 2 h. Membranes were washed 3 x 10 min in TBS before adding chemiluminescent substrate (Supersignal West Pico Plus, 54580, ThermoFisher) and imaged by the Pxi6 station (Ozyme).

Pharmacokinetics in mice = type: in vivo; conditions: mouse; for half-life / Cmax / AUC(0-t): plasma; for AUC(0-t): read-out: AUC(0–24)
Method: Plasma samples and tumor homogenates were mixed with the precipitant solution (acetonitrile containing internal standard). The supernatant (180 µL) was transferred in a 96-well plate and 5 µL were injected. EVT801 and its main metabolite were quantified by LC-MS/MS following standard conditions.
Quality control (QC) samples and calibration samples were prepared daily by spiking mouse plasma and tumor homogenates with working solutions prepared from independent weighing. The calibration curve was calculated from calibration levels at 1, 2.5, 5, 10, 25, 50, 100, 200, 500, 1000 and 2000 ng/mL. A variation of ± 20 % versus the nominal concentrations was used as criteria for qualification of samples; at least 75 % of all standards needed to be within this window, and at least 6 concentration values within tis window were used for quantification. The concentrations for QC samples were 5, 50, 150, 450 and 1500 ng/mL. At least 66 % of all QC samples, and at least 50 % of QC samples at a given concentration were within the ± 20 % window. Quadratic regressions were applied, not forced through the origin, and weighted by 1/x (with R^2 > 0.98). The lower limit of quantification for both compounds was set to 1 ng/mL for plasma and to 3 ng/g for tumor samples.

VEGFR-2 [3] = molecular target: T1, VEGFR-2; assay: Viability of Ba/F3 cells dependent on VEGFR-2; type: cell-based; design: fusion proteins consisting of constructs for IL-3 independent survival and either VEGFR-2 or VEGFR-3 kinase domains; expressed in transfected cells; host or cells: Ba/F3 (stably transduced)
Method: Ba/F3 cells were transduced and selected to stably express fusion proteins consisting of constructs for IL-3 independent survival and either VEGFR-2 or VEGFR-3 kinase domains or without the kinase domain. Proliferation and survival of cell lines was dependent on expression of the transcript. Cells in logarithmic-phase growth were harvested and 5 x 10^3 cells were distributed into each well of a 384-well plate in 50 µL of medium. Then, 50 nL of EVT801, SAR401849 or their vehicle solvent were added to appropriate wells. After 48 h, viability was determined by addition of 10 µL CellTiterGlo reagent (Promega). Luminescence was determined as relative light units (RLU) in counts per second.
Target sequence in this assay (P35968 834-1162 limits assumed, species assumed): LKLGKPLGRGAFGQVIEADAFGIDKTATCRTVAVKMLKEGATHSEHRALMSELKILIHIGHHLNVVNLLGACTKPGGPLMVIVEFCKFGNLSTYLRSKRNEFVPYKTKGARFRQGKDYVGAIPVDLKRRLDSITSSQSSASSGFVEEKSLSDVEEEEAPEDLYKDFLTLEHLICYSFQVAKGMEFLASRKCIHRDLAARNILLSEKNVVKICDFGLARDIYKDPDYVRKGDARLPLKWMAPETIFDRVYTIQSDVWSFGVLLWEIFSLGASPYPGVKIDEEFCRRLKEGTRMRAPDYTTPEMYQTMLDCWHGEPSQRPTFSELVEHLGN

NCI-H1703 cells = assay: NCI-H1703 viability (ATP reduction); type: cell-based; conditions: Homo sapiens, in vitro
Method: NCI-H1703 were seeded in 96-well plates coated with 0.3 % gelatin (5 x 10^3 cells per well) and were incubated in RPMI 0.1 % FCS with VEGF-C (300 ng/mL) or VEGF-D (300 ng/mL) in the absence or presence of increasing doses of EVT801. After 5 days, viable cells were quantified with the cell Titer-glo luminescent cell viability assay (Promega) as previously described (1).

With `CCn1c(N)c(-c2ncc[nH]2)c(=O)c2ccc(C#C[C@@](C)(O)COC)nc21` [EVT801] the IC50 (VEGFR-2 [1]) was 130 nM, the “effect on blood pressure” value [2] was “did not increase blood pressure” and the “reduction of ERK phosphorylation induced by VEGF-C and VEGF-D” value (ERK phosphorylation) was “better than pazopanib”. For the same compound, the half-life (Pharmacokinetics in mice; Balb/c, 30 mg/kg, Balb/c mice, 30 mg/kg, read-out: T1/2 in plasma (converted)) was 2.7 h, the half-life (Pharmacokinetics in mice; Balb/c, 100 mg/kg, Balb/c mice, 100 mg/kg, read-out: T1/2 in plasma (converted)) was 1.1 h and the half-life (Pharmacokinetics in mice; Balb/c, 100 mg/kg, Balb/c with 4T1 tumor, 100 mg/kg for 2 weeks) was 3.2 h. For the same compound, the half-life (Pharmacokinetics in mice; SCID, 10 mg/kg, SCID mice with tumor, 10 mg/kg for 2 weeks, read-out: T1/2 in plasma (converted)) was 0.9 h, the half-life (Pharmacokinetics in mice; SCID, 30 mg/kg, SCID mice with tumor, 30 mg/kg for 2 weeks, read-out: T1/2 in plasma (converted)) was 1.6 h and the Cmax (Pharmacokinetics in mice; oral, 100 mg/kg/day) was 8940 ng/mL. It also gave an AUC(0-t) (Pharmacokinetics in mice; oral, 100 mg/kg/day) of 22000 ng·h/mL, a Cmax (Pharmacokinetics in mice; po, 30 mg/kg twice per day) of 8390 ng/mL and an AUC(0-t) (Pharmacokinetics in mice; po, 30 mg/kg twice per day) of 28000 ng·h/mL. It also gave a Kp (Pharmacokinetics in mice; Balb/c with 4T1 tumor, 100 mg/kg for 2 weeks, read-out: Tissue to plasma (AUC)) of 0.88, an IC50 (VEGFR-2 [3]) of 248 nM and an IC50 (NCI-H1703 cells) of 109 nM.
